Data reported in JP2008208074A, “ピラジン誘導体を有効成分とする抗がん剤” (Toray Industries Inc, priority 2007, dated 2008).

Tests used:
[1] = Body weight and side effects in mouse colon cancer model (Example 2); format: in vivo; details: sodium salt of Reference Example 72, 20 mg/kg i.v. once daily day 0-3
[2] = test system: tumour derived from mouse colon cancer cell line Colon26 [マウス結腸癌細胞株であるColon26細胞由来の腫瘍]; assay: Tumour growth suppression in mouse colon cancer model (Example 2); format: in vivo; details: sodium salt of Reference Example 72; BALB/c mice, male, Colon26 tumour s.c.; 20 mg/kg i.v. once daily day 0-3; n=7; day 3

O=C(O)Cc1ccn(-c2cncc(-n3ncc4ccc(NC5CCCC5)cc43)n2)c1 [参考例72, 2-(1-(6-(6-(シクロペンチルアミノ)-1H-インダゾール-1-イル)ピラジン-2-イル)-1H-ピロール-3-イル)酢酸, ナトリウム塩]
body weight difference between treated and control group ([1]; n=7, day 4, result in words): 差は認められなかった
body weight ([1]; BALB/c mice with Colon26 tumour, n=7, weighed day 4, control group 22.9±0.5 g): 22.7 ± 0.5 g
side effects ([1]; mouse, individual level, concluded from body weight, result in words): 副作用を示すことなく
suppression of estimated tumour volume compared with control group [2]: 29%
